Tests used:
Format in all cases: in vivo
soybean [1] = assay: Test Example 4: foliar treatment, effect on crop; d: soybean; conditions: treatment dosage 1250 g/ha
Outline: (§1)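 Seeds are spot-sown into sterilized diluvial soil and covered with about 1.5 cm of soil. After 14 days' greenhouse growth at 25 to 30° C, plants are sprayed on stems and leaves with diluted emulsion at the stated g/ha rate, then scored at 3 weeks.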

Indian mallow [2] = assay: Test Example 4: weedkilling efficacy by foliar treatment; K: Indian mallow; conditions: treatment dosage 1250 g/ha
Outline: as §1

birds-eye speedwell [3] = assay: Test Example 3: weedkilling efficacy through soil treatment; p: birds-eye speedwell; conditions: treatment dosage 1250 g/ha
Outline: (§2)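 Crop and weed responses were judged three weeks after a uniform surface spray of the water-diluted emulsion at the given g/ha rate. Seeds sat beneath about 1.5 cm of sterilized diluvial soil, and boxes stood in a greenhouse at 25 to 30° C.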

corn [4] = assay: Test Example 4: foliar treatment, effect on crop; c: corn; conditions: treatment dosage 1250 g/ha
Outline: as §1

crabgrass [5] = assay: Test Example 4: weedkilling efficacy by foliar treatment; D: crabgrass; conditions: treatment dosage 1250 g/ha
Outline: as §1

barnyard grass [6] = assay: Test Example 1: weedkilling efficacy, preemergent weed treatment in the submerged state; A: barnyard grass; conditions: treatment dosage 1000 g/ha
Outline: (§3)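 Visual scores against set criteria were taken 3 weeks after treatment. Compounds, as diluted emulsions at specified g/ha, went onto the water surface of 4 cm-flooded alluvial soil pots on the day weeds were sown and 2.5-leaf rice was transplanted; greenhouse held 25–30 °C.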

chickweed [7] = assay: Test Example 4: weedkilling efficacy by foliar treatment; N: chickweed; conditions: treatment dosage 1250 g/ha
Outline: as §1

catchweed [8] = assay: Test Example 3: weedkilling efficacy through soil treatment; O: catchweed; conditions: treatment dosage 1250 g/ha
Outline: as §2

Italian ryegrass [9] = assay: Test Example 3: weedkilling efficacy through soil treatment; I: Italian ryegrass; conditions: treatment dosage 1250 g/ha
Outline: as §2

wild oat [10] = assay: Test Example 3: weedkilling efficacy through soil treatment; G: wild oat; conditions: treatment dosage 1250 g/ha
Outline: as §2

fig-leafed goosefoot [11] = assay: Test Example 4: weedkilling efficacy by foliar treatment; M: fig-leafed goosefoot; conditions: treatment dosage 1250 g/ha
Outline: as §1

bulrush [12] = assay: Test Example 2: weedkilling efficacy, growth period weed treatment in the submerged state; B: bulrush; conditions: treatment dosage 1000 g/ha
Outline: (§4)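 Barnyard grass, bulrush and oval-leafed pondweed sown in alluvial soil under 4 cm flooding, greenhouse 25 to 30° C. At 1-2 leaf stage, water-diluted emulsion applied to the water surface at stated g/ha dosages; effects scored 3 weeks later.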

barnyard grass [13] = assay: Test Example 2: weedkilling efficacy, growth period weed treatment in the submerged state; A: barnyard grass; conditions: treatment dosage 1000 g/ha
Outline: as §4

redroot pigweed [14] = assay: Test Example 3: weedkilling efficacy through soil treatment; L: redroot pigweed; conditions: treatment dosage 1250 g/ha
Outline: as §2

beet [15] = assay: Test Example 3: soil treatment, effect on crop; f: beet; conditions: treatment dosage 1250 g/ha
Outline: as §2

black-grass [16] = assay: Test Example 4: weedkilling efficacy by foliar treatment; H: black-grass; conditions: treatment dosage 1250 g/ha
Outline: as §1

wheat [17] = assay: Test Example 4: foliar treatment, effect on crop; e: wheat; conditions: treatment dosage 1250 g/ha
Outline: as §1

directly sown rice [18] = assay: Test Example 3: soil treatment, effect on crop; b: directly sown rice; conditions: treatment dosage 1250 g/ha
Outline: as §2

corn [19] = assay: Test Example 3: soil treatment, effect on crop; c: corn; conditions: treatment dosage 1250 g/ha
Outline: as §2

Italian ryegrass [20] = assay: Test Example 4: weedkilling efficacy by foliar treatment; I: Italian ryegrass; conditions: treatment dosage 1250 g/ha
Outline: as §1

directly sown rice [21] = assay: Test Example 4: foliar treatment, effect on crop; b: directly sown rice; conditions: treatment dosage 1250 g/ha
Outline: as §1

wheat [22] = assay: Test Example 3: soil treatment, effect on crop; e: wheat; conditions: treatment dosage 1250 g/ha
Outline: as §2

oval-leafed pondweed [23] = assay: Test Example 1: weedkilling efficacy, preemergent weed treatment in the submerged state; C: oval-leafed pondweed; conditions: treatment dosage 1000 g/ha
Outline: as §3

Indian mallow [24] = assay: Test Example 3: weedkilling efficacy through soil treatment; K: Indian mallow; conditions: treatment dosage 1250 g/ha
Outline: as §2

catchweed [25] = assay: Test Example 4: weedkilling efficacy by foliar treatment; O: catchweed; conditions: treatment dosage 1250 g/ha
Outline: as §1

bulrush [26] = assay: Test Example 1: weedkilling efficacy, preemergent weed treatment in the submerged state; B: bulrush; conditions: treatment dosage 1000 g/ha
Outline: as §3

chickweed [27] = assay: Test Example 3: weedkilling efficacy through soil treatment; N: chickweed; conditions: treatment dosage 1250 g/ha
Outline: as §2

oval-leafed pondweed [28] = assay: Test Example 2: weedkilling efficacy, growth period weed treatment in the submerged state; C: oval-leafed pondweed; conditions: treatment dosage 1000 g/ha
Outline: as §4

beet [29] = assay: Test Example 4: foliar treatment, effect on crop; f: beet; conditions: treatment dosage 1250 g/ha
Outline: as §1

redroot pigweed [30] = assay: Test Example 4: weedkilling efficacy by foliar treatment; L: redroot pigweed; conditions: treatment dosage 1250 g/ha
Outline: as §1

birds-eye speedwell [31] = assay: Test Example 4: weedkilling efficacy by foliar treatment; p: birds-eye speedwell; conditions: treatment dosage 1250 g/ha
Outline: as §1

transplanted rice = assay: Test Example 1: preemergent weed treatment in the submerged state, effect on crop; a: transplanted rice; conditions: treatment dosage 1000 g/ha
Outline: as §3

crabgrass [32] = assay: Test Example 3: weedkilling efficacy through soil treatment; D: crabgrass; conditions: treatment dosage 1250 g/ha
Outline: as §2

fig-leafed goosefoot [33] = assay: Test Example 3: weedkilling efficacy through soil treatment; M: fig-leafed goosefoot; conditions: treatment dosage 1250 g/ha
Outline: as §2

soybean [34] = assay: Test Example 3: soil treatment, effect on crop; d: soybean; conditions: treatment dosage 1250 g/ha
Outline: as §2

green foxtail [35] = assay: Test Example 4: weedkilling efficacy by foliar treatment; E: green foxtail; conditions: treatment dosage 1250 g/ha
Outline: as §1

wild oat [36] = assay: Test Example 4: weedkilling efficacy by foliar treatment; G: wild oat; conditions: treatment dosage 1250 g/ha
Outline: as §1

black-grass [37] = assay: Test Example 3: weedkilling efficacy through soil treatment; H: black-grass; conditions: treatment dosage 1250 g/ha
Outline: as §2

green foxtail [38] = assay: Test Example 3: weedkilling efficacy through soil treatment; E: green foxtail; conditions: treatment dosage 1250 g/ha
Outline: as §2

Structure (SMILES) | d (soybean) effect on crop grade (soybean [1]) | K (Indian mallow) weedkilling efficacy grade (Indian mallow [2]) | P (birds-eye speedwell) weedkilling efficacy grade (birds-eye speedwell [3]) | c (corn) effect on crop grade (corn [4]) | D (crabgrass) weedkilling efficacy grade (crabgrass [5]) | A (barnyard grass) weedkilling efficacy grade (barnyard grass [6]) | N (chickweed) weedkilling efficacy grade (chickweed [7]) | O (catchweed) weedkilling efficacy grade (catchweed [8]) | I (Italian ryegrass) weedkilling efficacy grade (Italian ryegrass [9]) | G (wild oat) weedkilling efficacy grade (wild oat [10]) | M (fig-leafed goosefoot) weedkilling efficacy grade (fig-leafed goosefoot [11]) | B (bulrush) weedkilling efficacy grade (bulrush [12]) | A (barnyard grass) weedkilling efficacy grade (barnyard grass [13]) | L (redroot pigweed) weedkilling efficacy grade (redroot pigweed [14]) | f (beet) effect on crop grade (beet [15]) | H (black-grass) weedkilling efficacy grade (black-grass [16]) | e (wheat) effect on crop grade (wheat [17]) | b (directly sown rice) effect on crop grade (directly sown rice [18]) | c (corn) effect on crop grade (corn [19]) | I (Italian ryegrass) weedkilling efficacy grade (Italian ryegrass [20]) | further results
CC1=C(c2cccnc2Cl)C(=O)N(C(C)(C)C(=O)Nc2cccc(F)n2)CO1 [B-2-19] | 1 (weed kill ratio 5% or more, less than 20%) | 0 (weed kill ratio 5% or less (practically no effect)) | 4 (weed kill ratio 70% or more, less than 90%) | 1 (weed kill ratio 5% or more, less than 20%) | 5 (weed kill ratio 90% or more, (practically complete withering)) | 5 (weed kill ratio 90% or more, (practically complete withering)) | 3 (weed kill ratio 40% or more, less than 70%) | 0 (weed kill ratio 5% or less (practically no effect)) | 5 (weed kill ratio 90% or more, (practically complete withering)) | 5 (weed kill ratio 90% or more, (practically complete withering)) | 3 (weed kill ratio 40% or more, less than 70%) | 5 (weed kill ratio 90% or more, (practically complete withering)) | 2 (weed kill ratio 20% or more, less than 40%) | 4 (weed kill ratio 70% or more, less than 90%) | 4 (weed kill ratio 70% or more, less than 90%) | 5 (weed kill ratio 90% or more, (practically complete withering)) | 0 (weed kill ratio 5% or less (practically no effect)) | 4 (weed kill ratio 70% or more, less than 90%) | 0 (weed kill ratio 5% or less (practically no effect)) | 4 (weed kill ratio 70% or more, less than 90%) | b (directly sown rice) effect on crop grade (directly sown rice [21]): 4 (weed kill ratio 70% or more, less than 90%); e (wheat) effect on crop grade (wheat [22]): 0 (weed kill ratio 5% or less (practically no effect)); C (oval-leafed pondweed) weedkilling efficacy grade (oval-leafed pondweed [23]): 4 (weed kill ratio 70% or more, less than 90%); K (Indian mallow) weedkilling efficacy grade (Indian mallow [24]): 0 (weed kill ratio 5% or less (practically no effect)); O (catchweed) weedkilling efficacy grade (catchweed [25]): 3 (weed kill ratio 40% or more, less than 70%); B (bulrush) weedkilling efficacy grade (bulrush [26]): 5 (weed kill ratio 90% or more, (practically complete withering)); N (chickweed) weedkilling efficacy grade (chickweed [27]): 4 (weed kill ratio 70% or more, less than 90%); C (oval-leafed pondweed) weedkilling efficacy grade (oval-leafed pondweed [28]): 3 (weed kill ratio 40% or more, less than 70%); f (beet) effect on crop grade (beet [29]): 3 (weed kill ratio 40% or more, less than 70%); L (redroot pigweed) weedkilling efficacy grade (redroot pigweed [30]): 3 (weed kill ratio 40% or more, less than 70%); P (birds-eye speedwell) weedkilling efficacy grade (birds-eye speedwell [31]): 5 (weed kill ratio 90% or more, (practically complete withering)); a (transplanted rice) effect on crop grade (transplanted rice): 0 (weed kill ratio 5% or less (practically no effect)); D (crabgrass) weedkilling efficacy grade (crabgrass [32]): 5 (weed kill ratio 90% or more, (practically complete withering)); M (fig-leafed goosefoot) weedkilling efficacy grade (fig-leafed goosefoot [33]): 5 (weed kill ratio 90% or more, (practically complete withering)); d (soybean) effect on crop grade (soybean [34]): 0 (weed kill ratio 5% or less (practically no effect)); E (green foxtail) weedkilling efficacy grade (green foxtail [35]): 5 (weed kill ratio 90% or more, (practically complete withering)); G (wild oat) weedkilling efficacy grade (wild oat [36]): 3 (weed kill ratio 40% or more, less than 70%); H (black-grass) weedkilling efficacy grade (black-grass [37]): 5 (weed kill ratio 90% or more, (practically complete withering)); E (green foxtail) weedkilling efficacy grade (green foxtail [38]): 5 (weed kill ratio 90% or more, (practically complete withering))
CC1=C(c2cccnc2Cl)C(=O)N(C(C)(C)C(=O)Nc2cccc(Cl)n2)CO1 [B-2-20] | 3 (weed kill ratio 40% or more, less than 70%) | 0 (weed kill ratio 5% or less (practically no effect)) | 4 (weed kill ratio 70% or more, less than 90%) | 1 (weed kill ratio 5% or more, less than 20%) | 5 (weed kill ratio 90% or more, (practically complete withering)) | 5 (weed kill ratio 90% or more, (practically complete withering)) | 2 (weed kill ratio 20% or more, less than 40%) | 0 (weed kill ratio 5% or less (practically no effect)) | 5 (weed kill ratio 90% or more, (practically complete withering)) | 0 (weed kill ratio 5% or less (practically no effect)) | 3 (weed kill ratio 40% or more, less than 70%) | 5 (weed kill ratio 90% or more, (practically complete withering)) | 1 (weed kill ratio 5% or more, less than 20%) | 4 (weed kill ratio 70% or more, less than 90%) | 4 (weed kill ratio 70% or more, less than 90%) | 4 (weed kill ratio 70% or more, less than 90%) | 0 (weed kill ratio 5% or less (practically no effect)) | 4 (weed kill ratio 70% or more, less than 90%) | 0 (weed kill ratio 5% or less (practically no effect)) | 4 (weed kill ratio 70% or more, less than 90%) | b (directly sown rice) effect on crop grade (directly sown rice [21]): 0 (weed kill ratio 5% or less (practically no effect)); e (wheat) effect on crop grade (wheat [22]): 0 (weed kill ratio 5% or less (practically no effect)); C (oval-leafed pondweed) weedkilling efficacy grade (oval-leafed pondweed [23]): 4 (weed kill ratio 70% or more, less than 90%); K (Indian mallow) weedkilling efficacy grade (Indian mallow [24]): 2 (weed kill ratio 20% or more, less than 40%); O (catchweed) weedkilling efficacy grade (catchweed [25]): 0 (weed kill ratio 5% or less (practically no effect)); B (bulrush) weedkilling efficacy grade (bulrush [26]): 5 (weed kill ratio 90% or more, (practically complete withering)); N (chickweed) weedkilling efficacy grade (chickweed [27]): 3 (weed kill ratio 40% or more, less than 70%); C (oval-leafed pondweed) weedkilling efficacy grade (oval-leafed pondweed [28]): 3 (weed kill ratio 40% or more, less than 70%); f (beet) effect on crop grade (beet [29]): 4 (weed kill ratio 70% or more, less than 90%); L (redroot pigweed) weedkilling efficacy grade (redroot pigweed [30]): 3 (weed kill ratio 40% or more, less than 70%); P (birds-eye speedwell) weedkilling efficacy grade (birds-eye speedwell [31]): 4 (weed kill ratio 70% or more, less than 90%); a (transplanted rice) effect on crop grade (transplanted rice): 0 (weed kill ratio 5% or less (practically no effect)); D (crabgrass) weedkilling efficacy grade (crabgrass [32]): 3 (weed kill ratio 40% or more, less than 70%); M (fig-leafed goosefoot) weedkilling efficacy grade (fig-leafed goosefoot [33]): 4 (weed kill ratio 70% or more, less than 90%); d (soybean) effect on crop grade (soybean [34]): 0 (weed kill ratio 5% or less (practically no effect)); E (green foxtail) weedkilling efficacy grade (green foxtail [35]): 5 (weed kill ratio 90% or more, (practically complete withering)); G (wild oat) weedkilling efficacy grade (wild oat [36]): 0 (weed kill ratio 5% or less (practically no effect)); H (black-grass) weedkilling efficacy grade (black-grass [37]): 5 (weed kill ratio 90% or more, (practically complete withering)); E (green foxtail) weedkilling efficacy grade (green foxtail [38]): 5 (weed kill ratio 90% or more, (practically complete withering))

From US9738634B2, “Heterocyclic amide compound and herbicide” (SYNGENTA PARTICIPATIONS AG, priority 2013, dated 2017)
